Measured values taken from the supplement of paper PMC4862054.

Experiments:
Details in all cases: incubation time: 72 h
MFM-223 [1] = assay: normalised response (% of control), CellTiter-Glo; higher = more viable cells (100 = DMSO, 0 = benzethonium chloride kill control)
Procedure, shortened: (§1)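 Each entry is the normalised signal at a single concentration within a series. The series comprised 5 concentrations in 10-fold steps over a compound-specific 10,000-fold range, placed in 384-well plates into which breast cancer cell lines were seeded as 20 µl suspension and incubated 72 h. CellTox Green (485/520 nm) fluorescence and then CellTiter-Glo luminescence were read, with signals normalised per plate to 0.1 % DMSO (100) and a positive kill control (0).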

MCF-10A = assay: as above
Procedure, shortened: as §1

HCC1599 [2] = assay: as above
Procedure, shortened: as §1

MDA-MB-436 [3] = assay: as above
Procedure, shortened: as §1

MDA-MB-453 [4] = assay: as above
Procedure, shortened: as §1

BT-474 [5] = assay: as above
Procedure, shortened: as §1

HCC1937 [6] = assay: as above
Procedure, shortened: as §1

MDA-MB-468 [7] = assay: as above
Procedure, shortened: as §1

CAL-85-1 [8] = assay: as above
Procedure, shortened: as §1

DU-4475 [9] = assay: as above
Procedure, shortened: as §1

Hs578T [10] = assay: as above
Procedure, shortened: as §1

HDQ-P1 [11] = assay: as above
Procedure, shortened: as §1

HCC1143 [12] = assay: as above
Procedure, shortened: as §1

MDA-MB-231 [13] = assay: as above
Procedure, shortened: as §1

BT-549 [14] = assay: as above
Procedure, shortened: as §1

CAL-148 [15] = assay: as above
Procedure, shortened: as §1

CAL-51 [16] = assay: as above
Procedure, shortened: as §1

SK-BR-3 [17] = assay: as above
Procedure, shortened: as §1

CAL-120 [18] = assay: as above
Procedure, shortened: as §1

MFM-223 [19] = assay: normalised viability (% of control), CellTiter-Blue; higher = more viable cells (100 = DMSO, 0 = benzethonium chloride kill control)
Procedure, shortened: (§2)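 Seeded at 20 µl suspension per well onto compound-loaded 384-well plates, breast cancer cell lines were incubated 72 h. CellTiter-Blue fluorescence at 560/590 nm was then read, with each plate normalised to vehicle (100) and a positive kill control (0). Normalised viability is reported at a single listed concentration of the series.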

HCC1599 [20] = assay: as above
Procedure, shortened: as §2

MDA-MB-436 [21] = assay: as above
Procedure, shortened: as §2

MDA-MB-453 [22] = assay: as above
Procedure, shortened: as §2

BT-474 [23] = assay: as above
Procedure, shortened: as §2

HCC1937 [24] = assay: as above
Procedure, shortened: as §2

MDA-MB-468 [25] = assay: as above
Procedure, shortened: as §2

CAL-85-1 [26] = assay: as above
Procedure, shortened: as §2

DU-4475 [27] = assay: as above
Procedure, shortened: as §2

Hs578T [28] = assay: as above
Procedure, shortened: as §2

HDQ-P1 [29] = assay: as above
Procedure, shortened: as §2

HCC1143 [30] = assay: as above
Procedure, shortened: as §2

MDA-MB-231 [31] = assay: as above
Procedure, shortened: as §2

BT-549 [32] = assay: as above
Procedure, shortened: as §2

CAL-148 [33] = assay: as above
Procedure, shortened: as §2

CAL-51 [34] = assay: as above
Procedure, shortened: as §2

SK-BR-3 [35] = assay: as above
Procedure, shortened: as §2

CAL-120 [36] = assay: as above
Procedure, shortened: as §2

Row | SMILES | normalised response (MFM-223 [1]) [%] | normalised response (MCF-10A) [%] | normalised response (HCC1599 [2]) [%] | normalised response (MDA-MB-436 [3]) [%] | normalised response (MDA-MB-453 [4]) [%] | normalised response (BT-474 [5]) [%] | normalised response (HCC1937 [6]) [%] | normalised response (MDA-MB-468 [7]) [%] | normalised response (CAL-85-1 [8]) [%] | normalised response (DU-4475 [9]) [%] | normalised response (Hs578T [10]) [%] | normalised response (HDQ-P1 [11]) [%] | normalised response (HCC1143 [12]) [%] | normalised response (MDA-MB-231 [13]) [%] | normalised response (BT-549 [14]) [%] | normalised response (CAL-148 [15]) [%] | normalised response (CAL-51 [16]) [%] | normalised response (SK-BR-3 [17]) [%] | normalised response (CAL-120 [18]) [%] | normalised viability (MFM-223 [19]) [%] | normalised viability (HCC1599 [20]) [%] | normalised viability (MDA-MB-436 [21]) [%] | normalised viability (MDA-MB-453 [22]) [%] | normalised viability (BT-474 [23]) [%] | normalised viability (HCC1937 [24]) [%] | normalised viability (MDA-MB-468 [25]) [%] | normalised viability (CAL-85-1 [26]) [%] | normalised viability (DU-4475 [27]) [%] | normalised viability (Hs578T [28]) [%] | normalised viability (HDQ-P1 [29]) [%] | normalised viability (HCC1143 [30]) [%] | normalised viability (MDA-MB-231 [31]) [%] | normalised viability (BT-549 [32]) [%] | normalised viability (CAL-148 [33]) [%] | normalised viability (CAL-51 [34]) [%] | normalised viability (SK-BR-3 [35]) [%] | normalised viability (CAL-120 [36]) [%]
1 | O=C(c1cc(Cc2n[nH]c(=O)c3ccccc23)ccc1F)N1CCN(C(=O)C2CC2)CC1 [Olaparib] (1 nM) | 96.7 | 92.8 | 101 | 104 | 103 | 96.7 | 90.5 | 99 | 103 | 102 | 99.9 | 95.9 | 93.1 | 99.1 | 103 | 93 | 114 | 102 | 92.4 | 91 | 89.9 | 113 | 92.7 | 85.8 | 102 | 95.3 | 87.6 | 94.1 | 99.7 | 96.9 | 88.4 | 84.8 | 86 | 87.1 | 103 | 91.2 | 73.8
2 | NC(=O)NO [Hydroxyurea] (10 nM) | 105 | 110 | 101 | 90.1 | 110 | 98.6 | 91.6 | 103 | 98.5 | 106 | 101 | 97.3 | 104 | 98.3 | 108 | 101 | 74.9 | 113 | 96.7 | 104 | 113 | 109 | 105 | 97.2 | 95.8 | 112 | 109 | 123 | 107 | 116 | 102 | 101 | 99.2 | 107 | 100 | 52 | 98.9
3 | Cc1c(N)nc([C@H](CC(N)=O)NC[C@H](N)C(N)=O)nc1C(=O)N[C@H](C(=O)N[C@H](C)[C@@H](O)[C@H](C)C(=O)N[C@H](C(=O)NCCc1nc(-c2nc(C(=O)NCCC[S+](C)C)cs2)cs1)[C@@H](C)O)[C@@H](OC1OC(CO)C(O)C(O)C1OC1OC(CO)C(O)C(OC(N)=O)C1O)c1cnc[nH]1 (stereo partly drawn) [Bleomycin] (1 nM) | 96.5 | 93.2 | 90.8 | 102 | 105 | 96.3 | 98 | 95.5 | 97.4 | 97.1 | 97.3 | 96.4 | 96.4 | 92.3 | 104 | 93.2 | 113 | 103 | 99 | 102 | 126 | 121 | 91.7 | 84.4 | 92.7 | 85.4 | 97.8 | 116 | 98.8 | 91.5 | 92.5 | 86.7 | 97.3 | 112 | 94.5 | 83.4 | 89.3
4 | CC(C)C[C@H](NC(=O)[C@H](CCc1ccccc1)NC(=O)CN1CCOCC1)C(=O)N[C@@H](Cc1ccccc1)C(=O)N[C@@H](CC(C)C)C(=O)[C@@]1(C)CO1 [Carfilzomib] (0.1 nM) | 104 | 106 | 120 | 105 | 108 | 108 | 105 | 109 | 105 | 103 | 100 | 110 | 104 | 107 | 97.3 | 109 | 124 | 105 | 103 | 83.4 | 100 | 101 | 96.9 | 116 | 84.8 | 100 | 95.5 | 107 | 100 | 95.6 | 100 | 132 | 105 | 99.9 | 110 | 99.7 | 89.8
